Here are results for six compounds from patent EP0590919A1, “Therapeutic agents for parkinson's disease” (KYOWA HAKKO KOGYO CO., LTD., priority 1992, dated 1994).

SMILES strings stand for the structures. Where only a bound is given, the exact number is not on record here.

T2 sequence (P30543 whole entry): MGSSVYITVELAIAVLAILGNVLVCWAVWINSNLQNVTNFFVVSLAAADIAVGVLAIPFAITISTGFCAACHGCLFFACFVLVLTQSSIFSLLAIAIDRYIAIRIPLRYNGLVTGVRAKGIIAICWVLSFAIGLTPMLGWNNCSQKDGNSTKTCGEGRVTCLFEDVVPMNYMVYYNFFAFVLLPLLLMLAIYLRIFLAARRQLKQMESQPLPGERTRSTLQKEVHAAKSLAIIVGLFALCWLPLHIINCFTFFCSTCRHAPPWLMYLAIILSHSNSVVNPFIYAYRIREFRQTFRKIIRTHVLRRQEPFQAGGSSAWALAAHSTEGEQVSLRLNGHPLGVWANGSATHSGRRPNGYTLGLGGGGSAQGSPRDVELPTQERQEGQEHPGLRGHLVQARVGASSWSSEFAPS

The target in one series is T1, A₁ receptor (Cavia porcellus, UniProt P47745).
T1 construct: from tissue; host or cells: guinea pig cerebrum membrane preparation
T1 sequence (P47745 1-326): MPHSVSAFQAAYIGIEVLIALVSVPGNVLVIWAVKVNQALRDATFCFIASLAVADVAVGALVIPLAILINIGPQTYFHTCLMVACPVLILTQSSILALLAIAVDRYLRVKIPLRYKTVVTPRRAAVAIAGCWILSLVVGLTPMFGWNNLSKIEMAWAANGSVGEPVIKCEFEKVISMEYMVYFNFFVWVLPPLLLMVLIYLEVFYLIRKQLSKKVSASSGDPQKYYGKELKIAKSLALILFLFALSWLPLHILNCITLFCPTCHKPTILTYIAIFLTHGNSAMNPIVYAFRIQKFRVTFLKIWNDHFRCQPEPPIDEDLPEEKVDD
Nature of the series: Adenosine A₁ receptor binding test (³H-CHA binding). Further details: species or system guinea pig. The following applies: 10⁻⁴M, guinea pig cerebrum. How it is done: Cerebrum of a guinea pig was suspended in ice-cooled 50 mM Tris hydroxymethyl aminomethane hydrochloride (Tris HCl) buffer (pH 7.7) by using Polytron homogenizer (manufactured by […] Co.). […] The suspension was centrifuged under the same conditions, and the final precipitate was suspended once again in 50 mM Tris HCl buffer to give a tissue concentration of 100 mg (wet weight)/ml. The tissue suspension was incubated at 37°C for 30 minutes in the presence of 0.02 unit/mg tissue of adenosine deaminase (manufactured by Sigma Co.). The tissue suspension was then centrifuged (50,000 x g, 10 minutes), and 50 mM Tris HCl buffer was added to the precipitate to adjust the concentration of tissue to 10 mg (wet weight)/ml. […] The mixture solution was allowed to stand at 25°C for 90 minutes and then rapidly filtered by suction through a glass fiber filter (GF/C manufactured by Whatman Co.). […] The radioactivity on the filter was determined with a liquid scintillation counter (manufactured by Packard Instrument Co.). […] The inhibition constant (Ki value) shown in the table was calculated by the Cheng-Prusoff's equation.
For the compound `CCn1c(=O)c2[nH]c(/C=C/c3ccc(OC)c(OC)c3)nc2n(CC)c1=O` [Compound 1, (E)-8-(3,4-Dimethoxystyryl)-1,3-diethylxanthine], the inhibition at 100 µM was 86%.
The same measure, in the same setting: under `CCn1c(=O)c2c(nc(/C=C/c3cccc(OC)c3OC)n2C)n(CC)c1=O` [Compound 4, (E)-8-(2,3-Dimethoxystyryl)-1,3-diethyl-7-methylxanthine] stands 70%; under `CCn1c(=O)c2[nH]c(/C=C/c3ccc(OC)c(OC)c3OC)nc2n(CC)c1=O` [Compound 7, (E)-1,3-Diethyl-8-(2,3,4-trimethoxystyryl)xanthine], 49%.
The compound `CCn1c(=O)c2[nH]c(/C=C/c3ccc(OC)c(C)c3C)nc2n(CC)c1=O` [Compound 9, (E)-1,3-Diethyl-8-(4-methoxy-2,3-dimethylstyryl)xanthine] came in with an inhibition at 100 µM of 26%.
The same measure, in the same setting: then `CCn1c(=O)c2[nH]c(/C=C/c3ccc(OC)c(C)c3OC)nc2n(CC)c1=O` [Compound 13, (E)-8-(2,4-Dimethoxy-3-methylstyryl)-1,3-diethylxanthine], with 71%.
The same measure, in the same setting: then `CCn1c(=O)c2[nH]c(/C=C/c3ccc4c(c3)OCO4)nc2n(CC)c1=O` [Compound 15, (E)-1,3-Diethyl-8-(3,4-methylenedioxystyryl)xanthine], with 35%.

The series is the same for the next values; noted with them: 10⁻⁵M, guinea pig cerebrum.
Consider `CCn1c(=O)c2[nH]c(/C=C/c3ccc(OC)c(OC)c3)nc2n(CC)c1=O` [Compound 1, (E)-8-(3,4-Dimethoxystyryl)-1,3-diethylxanthine], for which the inhibition at 10 µM amounted to 84%.
The same measure, in the same setting: under `CCn1c(=O)c2c(nc(/C=C/c3cccc(OC)c3OC)n2C)n(CC)c1=O` [Compound 4, (E)-8-(2,3-Dimethoxystyryl)-1,3-diethyl-7-methylxanthine] stands 55%.
In the case of `CCn1c(=O)c2[nH]c(/C=C/c3ccc(OC)c(OC)c3OC)nc2n(CC)c1=O` [Compound 7, (E)-1,3-Diethyl-8-(2,3,4-trimethoxystyryl)xanthine], the inhibition at 10 µM came to 34%.
The same measure, in the same setting: under `CCn1c(=O)c2[nH]c(/C=C/c3ccc(OC)c(C)c3C)nc2n(CC)c1=O` [Compound 9, (E)-1,3-Diethyl-8-(4-methoxy-2,3-dimethylstyryl)xanthine] stands 14%; under `CCn1c(=O)c2[nH]c(/C=C/c3ccc(OC)c(C)c3OC)nc2n(CC)c1=O` [Compound 13, (E)-8-(2,4-Dimethoxy-3-methylstyryl)-1,3-diethylxanthine], 59%; under `CCn1c(=O)c2[nH]c(/C=C/c3ccc4c(c3)OCO4)nc2n(CC)c1=O` [Compound 15, (E)-1,3-Diethyl-8-(3,4-methylenedioxystyryl)xanthine], 25%.

The same series, now with this note: Cheng-Prusoff's equation.
Compound `CCn1c(=O)c2[nH]c(/C=C/c3ccc(OC)c(OC)c3OC)nc2n(CC)c1=O` [Compound 7, (E)-1,3-Diethyl-8-(2,3,4-trimethoxystyryl)xanthine] came in with a Ki above 10000 nM.
The same measure, in the same setting: then `CCn1c(=O)c2[nH]c(/C=C/c3ccc(OC)c(C)c3C)nc2n(CC)c1=O` [Compound 9, (E)-1,3-Diethyl-8-(4-methoxy-2,3-dimethylstyryl)xanthine], with above 100000 nM; and `CCn1c(=O)c2[nH]c(/C=C/c3ccc4c(c3)OCO4)nc2n(CC)c1=O` [Compound 15, (E)-1,3-Diethyl-8-(3,4-methylenedioxystyryl)xanthine], with above 100000 nM.

In the next series the test system is dd-strain male mice. Nature of the series: Acute toxicity test (minimum lethal dose, oral). Particulars: oral administration, three mice per group, mortality seven days after administration. Format: in vivo. How it is done:
Test compounds were orally administered to groups of dd-strain male mice weighing 20 ± 1 g, each group consisting of three mice. Seven days after the administration, minimum lethal dose (MLD) of each compound was determined by observing the mortality.
As to `CCn1c(=O)c2[nH]c(/C=C/c3ccc(OC)c(OC)c3)nc2n(CC)c1=O` [Compound 1, (E)-8-(3,4-Dimethoxystyryl)-1,3-diethylxanthine], the MLD is given as above 300 mg/kg.
For `CCn1c(=O)c2c(nc(/C=C/c3cccc(OC)c3OC)n2C)n(CC)c1=O` [Compound 4, (E)-8-(2,3-Dimethoxystyryl)-1,3-diethyl-7-methylxanthine], the MLD is given as above 300 mg/kg.
The same measure, in the same setting: under `CCn1c(=O)c2[nH]c(/C=C/c3ccc(OC)c(OC)c3OC)nc2n(CC)c1=O` [Compound 7, (E)-1,3-Diethyl-8-(2,3,4-trimethoxystyryl)xanthine] stands above 300 mg/kg; under `CCn1c(=O)c2[nH]c(/C=C/c3ccc(OC)c(C)c3C)nc2n(CC)c1=O` [Compound 9, (E)-1,3-Diethyl-8-(4-methoxy-2,3-dimethylstyryl)xanthine], above 300 mg/kg; under `CCn1c(=O)c2[nH]c(/C=C/c3ccc(OC)c(C)c3OC)nc2n(CC)c1=O` [Compound 13, (E)-8-(2,4-Dimethoxy-3-methylstyryl)-1,3-diethylxanthine], above 300 mg/kg.
For the compound `CCn1c(=O)c2[nH]c(/C=C/c3ccc4c(c3)OCO4)nc2n(CC)c1=O` [Compound 15, (E)-1,3-Diethyl-8-(3,4-methylenedioxystyryl)xanthine], the MLD was above 300 mg/kg.

Another series addresses T2, A₂ receptor (Rattus norvegicus, UniProt P30543).
T2 construct: from tissue; host or cells: rat corpus striatum membrane preparation
Nature of the series: Adenosine A₂ receptor binding test (³H-NECA binding). The following applies: ratio of Ki values A₁/A₂.
As to `CCn1c(=O)c2[nH]c(/C=C/c3ccc(OC)c(OC)c3OC)nc2n(CC)c1=O` [Compound 7, (E)-1,3-Diethyl-8-(2,3,4-trimethoxystyryl)xanthine], the “Ratio (A₁/A₂)” value is above 670.
Same read-out and setting: under `CCn1c(=O)c2[nH]c(/C=C/c3ccc(OC)c(C)c3C)nc2n(CC)c1=O` [Compound 9, (E)-1,3-Diethyl-8-(4-methoxy-2,3-dimethylstyryl)xanthine] stands > 32,000.

The same series, now with this note: read-out: Inhibition (%) A₂ Receptor.
On to `CCn1c(=O)c2[nH]c(/C=C/c3ccc(OC)c(OC)c3)nc2n(CC)c1=O` [Compound 1, (E)-8-(3,4-Dimethoxystyryl)-1,3-diethylxanthine], for which the inhibition at 0.1 µM is 53%, the inhibition at 1 µM is 86%, the inhibition at 10 µM worked out at 98% and the inhibition at 100 µM is 100%.
On the same counts, the results for `CCn1c(=O)c2c(nc(/C=C/c3cccc(OC)c3OC)n2C)n(CC)c1=O` [Compound 4, (E)-8-(2,3-Dimethoxystyryl)-1,3-diethyl-7-methylxanthine] are 57%, 84%, 88% and 90%.
Take `CCn1c(=O)c2[nH]c(/C=C/c3ccc(OC)c(OC)c3OC)nc2n(CC)c1=O` [Compound 7, (E)-1,3-Diethyl-8-(2,3,4-trimethoxystyryl)xanthine]: the inhibition at 0.1 µM worked out at 65%, the inhibition at 1 µM is 88%, the inhibition at 10 µM is 75% and the inhibition at 100 µM stood at 83%.
In the same order, the values of `CCn1c(=O)c2[nH]c(/C=C/c3ccc(OC)c(C)c3C)nc2n(CC)c1=O` [Compound 9, (E)-1,3-Diethyl-8-(4-methoxy-2,3-dimethylstyryl)xanthine] are 79%, 84%, 73% and 86%.
In the same order, the values of `CCn1c(=O)c2[nH]c(/C=C/c3ccc(OC)c(C)c3OC)nc2n(CC)c1=O` [Compound 13, (E)-8-(2,4-Dimethoxy-3-methylstyryl)-1,3-diethylxanthine] are 77%, 84%, 88% and 95%.
On the same counts, the results for `CCn1c(=O)c2[nH]c(/C=C/c3ccc4c(c3)OCO4)nc2n(CC)c1=O` [Compound 15, (E)-1,3-Diethyl-8-(3,4-methylenedioxystyryl)xanthine] are 53%, 64%, 70% and 70%.

Staying with this series, now noted: ³H-NECA binding.
On to `CCn1c(=O)c2[nH]c(/C=C/c3ccc(OC)c(OC)c3)nc2n(CC)c1=O` [Compound 1, (E)-8-(3,4-Dimethoxystyryl)-1,3-diethylxanthine], for which the Ki was found to be 23 nM.
Consider `CCn1c(=O)c2c(nc(/C=C/c3cccc(OC)c3OC)n2C)n(CC)c1=O` [Compound 4, (E)-8-(2,3-Dimethoxystyryl)-1,3-diethyl-7-methylxanthine], for which the affinity corresponds to a Ki of 33 nM.
On the same count and under the same terms, then `CCn1c(=O)c2[nH]c(/C=C/c3ccc(OC)c(OC)c3OC)nc2n(CC)c1=O` [Compound 7, (E)-1,3-Diethyl-8-(2,3,4-trimethoxystyryl)xanthine], with 15 nM.
Still for that read-out and setting: then `CCn1c(=O)c2[nH]c(/C=C/c3ccc(OC)c(C)c3C)nc2n(CC)c1=O` [Compound 9, (E)-1,3-Diethyl-8-(4-methoxy-2,3-dimethylstyryl)xanthine], with 3.1 nM; and `CCn1c(=O)c2[nH]c(/C=C/c3ccc(OC)c(C)c3OC)nc2n(CC)c1=O` [Compound 13, (E)-8-(2,4-Dimethoxy-3-methylstyryl)-1,3-diethylxanthine], with 9.5 nM; and `CCn1c(=O)c2[nH]c(/C=C/c3ccc4c(c3)OCO4)nc2n(CC)c1=O` [Compound 15, (E)-1,3-Diethyl-8-(3,4-methylenedioxystyryl)xanthine], with 15 nM.
